This is an account of results in US12262710B2, “Fungicidal compounds” (SYNGENTA CROP PROTECTION AG, priority 2019, dated 2025).

The subject of one assay is Alternaria solani. Put plainly: Alternaria solani (early blight of tomatoes), tomato leaf disks. It counts as in vivo. As to conditions: foliar, inoculated 2 days after application, compared to untreated control. The protocol:
Alternaria solani (Early Blight of Tomatoes) Tomato leaf disks are placed on agar in multiwell plates (24-well format) and sprayed with the formulated test compound diluted in water. The leaf disks are inoculated with a spore suspension of the fungus 2 days after application. The inoculated leaf disks are incubated at 23° C./21° C.

Another assay relates to Glomerella lagenarium. Put plainly: Glomerella lagenarium syn. Colletotrichum lagenarium (anthracnose of cucurbits), liquid culture growth inhibition. Conditions: Colletotrichum orbiculare, nutrient broth (PDB), 72 hrs, photometric at 620 nm, compared to untreated control. In kind it is cell-based. The gist of the method: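 Conidia mixed into potato dextrose broth and added to compound in DMSO in 96-well format. Incubated at 24 °C; growth inhibition measured photometrically at 620 nm after 72 hrs.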

In assay [1] the test system is Erysiphe graminis f. sp. tritici. The experiment in a line: Erysiphe graminis f. sp. tritici (wheat powdery mildew), wheat leaf segments, preventive. In kind it is in vivo. As to conditions: Blumeria graminis, foliar, 168 h, 7 dpi, compared to untreated control. The protocol: Wheat leaf segments are placed on agar in multiwell plates (24-well format) and sprayed with test solutions. After drying, the leaf disks are inoculated with spores of the fungus. After appropriate incubation the activity of a compound is assessed 7 dpi (days post inoculation) as preventive fungicidal activity.

In the next assay the test system is Monographella nivalis. The experiment in a line: Monographella nivalis syn. Microdochium nivale (snow mould, foot rot of cereals), liquid culture growth inhibition. In kind it is cell-based. As to conditions: nutrient broth (PDB), 72 hrs, photometric at 620 nm, compared to untreated control. The gist of the method: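 Cryostored conidia suspended in potato dextrose broth and added to test compounds in DMSO. Growth inhibition read photometrically at 620 nm after 72 h incubation at 24 °C.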

A further assay deals with Mycosphaerella arachidis. The experiment in a line: Mycosphaerella arachidis syn. Cercospora arachidicola (brown leaf spot of peanut), liquid culture growth inhibition. It counts as cell-based. Conditions: nutrient broth (PDB), approximately 5-6 days, photometric at 620 nm, compared to untreated control. The protocol: Conidia of the fungus from cryogenic storage were directly mixed into nutrient broth (PDB potato dextrose broth). A DMSO solution of the test compounds was placed into a microtiter plate (96-well format) and the nutrient broth containing the fungal spores was added to it. The test plates were incubated at 24° C. and the inhibition of growth was determined photometrically after approximately 5-6 […] at 620 nm.

Assay [2] relates to Phakopsora pachyrhizi. The experiment in a line: Phakopsora pachyrhizi (soybean rust), soybean leaf disks, preventive. In kind it is in vivo. Conditions: foliar, 288 h, approx. 12 dpi, compared to untreated control. The protocol:
Soybean leaf disks are placed on agar in multiwell plates (24-well format) and sprayed with test solutions. After drying, the leaf disks are inoculated with a spore suspension of the fungus. After appropriate incubation the activity of a compound is assessed approx. 12 dpi (days after inoculation) as preventive fungicidal activity.

A further assay has as its system Phytophthora infestans. The experiment in a line: whole plant or invertebrate. Conditions: in Solanum lycopersicum, foliar, 96 h, read-out: control of Phytophthora infestans. In kind it is in vivo.
The subject of another assay is Plasmopara viticola. Put plainly: Plasmopara viticola (downy mildew of grapevine), grape vine leaf disks, preventive. In kind it is in vivo. Conditions: foliar, 168 h, 7 dpi, compared to untreated control. The protocol:
Grape vine leaf disks are placed on agar in multiwell plates (24-well format) and sprayed with test solutions. After drying, the leaf disks are inoculated with a spore suspension of the fungus. After appropriate incubation the activity of a compound is assessed 7 dpi (days after inoculation) as preventive fungicidal activity.

The subject of assay [3] is Puccinia recondita f. sp. tritici. Put plainly: Puccinia recondita (brown rust), curative, wheat leaf segments. In kind it is in vivo. Conditions: foliar, 192 h, sprayed 1 day after inoculation, 8 dpi, compared to untreated control. On the procedure:
Wheat leaf segments are placed on agar in multiwell plates (24-well format). The leaf segments are inoculated with a spore suspension of the fungus and sprayed with test solutions 1 day after inoculation. After appropriate incubation the activity of a compound is assessed 8 dpi (days after inoculation) as curative fungicidal activity.

Assay [4] has the same test system. The experiment in a line: Puccinia recondita (brown rust), preventative, wheat leaf segments. It counts as in vivo. Conditions: foliar, 192 h, 8 dpi, compared to untreated control. On the procedure: Wheat leaf segments are placed on agar in multiwell plates (24-well format) and sprayed with test solutions. After drying, the leaf segments are inoculated with a spore suspension of the fungus. After appropriate incubation the activity of a compound is assessed 8 dpi (days after inoculation) as preventative fungicidal activity.

For a further assay, the system named is Pyricularia oryzae. The experiment in a line: whole plant or invertebrate. In kind it is in vivo. Conditions: foliar, 120 h, read-out: control of Pyricularia oryzae.
A further assay concerns Puccinia recondita. The experiment in a line: Example C: comparative activity against Puccinia recondita (brown rust), curative, wheat leaf segments. In kind it is in vivo. Conditions: 8 dpi. The protocol:
Method; Wheat leaf segments are placed on agar in multiwell plates (24-well format). The leaf segments are inoculated with a spore suspension of the fungus and sprayed with test solutions 1 day after inoculation. After appropriate incubation the activity of a compound is assessed 8 dpi (days after inoculation) as curative fungicidal activity. The data are presented as the percentage of disease control of each compound for the biological tests and testing rates described below in table H.

The test system of assay [5] is Phakopsora pachyrhizi. The experiment in a line: Example D: comparative activity against Phakopsora pachyrhizi (soybean rust), soybean plants sprayed, leaf disks cut from treated plants. Conditions: 0.1% OCHIMA, leaf disks cut one day after application, approx. 12 dpi. It counts as in vivo. The protocol: Method: Soybean plants are sprayed in a spray chamber with formulated DMSO compound solutions which are diluted to the appropriate concentration with 0.1% […] (adjuvant comprising polyethoxylated sorbitol hexaoleate and tris(2-ethylhexyl) phosphate) just before spraying. Leaf disks are cut from treated plants and placed on agar into 24-well plates one day after application. After, the leaf disks are inoculated with a spore suspension of the fungus. After appropriate incubation the activity of a compound is assessed approx. 12 dpi (days after inoculation) as preventive fungicidal activity. The data are presented as the percentage of disease control of each compound for the biological tests and testing rates described below in Table 1.

Assay [6] concerns Phakopsora pachyrhizi. Put plainly: Example E: comparative activity against Phakopsora pachyrhizi (soybean rust), soybean leaf disks sprayed. It counts as in vivo. Conditions: 0.025% Tween20, approx. 12 dpi. On the procedure: Method: Compounds to be tested are prepared as DMSO solutions which are diluted to the appropriate concentration with 0.025% Tween20 just before spraying. Soybean leaf disks are placed on agar in multiwell plates (24-well format) and sprayed with test solutions. After drying, the leaf disks are inoculated with a spore suspension of the fungus. After appropriate incubation the activity of a compound is assessed approx. 12 dpi (days after inoculation) as preventive fungicidal activity. The data are presented as the percentage of disease control of each compound for the biological tests and testing rates described below in Table J.

Each structure is given as a SMILES string.

As for `CO/C=C(\Oc1cc(C2CCCCC2)ccc1C)C(=O)OC` [E.15, methyl (Z)-2-(5-cyclohexyl-2-methyl-phenoxy)-3-methoxy-prop-2-enoate], the pest or weed control at 200 ppm (in the assay with Alternaria solani; in assay [1]; with Phytophthora infestans; in the assay on Plasmopara viticola; in assay [3]; in assay [4]) was no less than 80% throughout. Besides, the pest or weed control at 200 ppm with Pyricularia oryzae was no less than 80%. For the same molecule, the inhibition of growth at 20 ppm in the assay with Glomerella lagenarium, in the assay with Monographella nivalis and with Mycosphaerella arachidis was no less than 80% each time. Also, the pest or weed control at 60 ppm in the assay with Phakopsora pachyrhizi [2] is no less than 70%. Moreover, the “control (%) Puccinia recondita (Brown rust), curative” value with Puccinia recondita (20 ppm) is 90%; in the assay on Puccinia recondita (60 ppm) it was 100%; in the assay on Puccinia recondita (200 ppm), 100%. Also, the “control (%) Phakopsora pachyrhizi (Soybean rust)” value is recorded as 0% with Phakopsora pachyrhizi [5] (6 ppm); 51% with Phakopsora pachyrhizi [5] (20 ppm); 97% in the assay with Phakopsora pachyrhizi [5] (60 ppm); 99% with Phakopsora pachyrhizi [5] (200 ppm); 10% in the assay on Phakopsora pachyrhizi [6] (0.6 ppm); 70% with Phakopsora pachyrhizi [6] (2 ppm). Also, the “control (%) Phakopsora pachyrhizi (Soybean rust)” value is recorded as 95% in the assay with Phakopsora pachyrhizi [6] (6 ppm), 100% in the assay with Phakopsora pachyrhizi [6] (20 ppm), 100% in the assay on Phakopsora pachyrhizi [6] (60 ppm) and 100% with Phakopsora pachyrhizi [6] (200 ppm).
